In ChEMBL document CHEMBL4811258, “Potent Antimalarials with Development Potential Identified by Structure-Guided Computational Optimization of a Pyrrole-Based Dihydroorotate Dehydrogenase Inhibitor Series” (J Med Chem, 2021):
pEC50, pIC50: −log10 of the molar value. Converted amounts (≈) assume the structure as drawn. The source made the active and inactive calls. The rule behind the calls is not given here.

Tests used:
[1] = Inhibition of Plasmodium falciparum DHODH expressed in Escherichia coli BL21-DE3 using L-dihydroorotate as substrate by steady-state DCIP method
Albumin = Albumin (Bos taurus, UniProt P02769); assay: Binding affinity to bovine serum albumin by Albumax assay; format: ADME; conditions: cattle, isolated protein
[2] = Binding affinity to microsome (unknown origin); format: ADME; conditions: microsomes
[3] = Intrinsic clearance in mouse liver microsomes at 1 uM measured up to 4 hrs by LC-MS analysis; format: ADME, Microsome
[4] = Unbound intrinsic clearance in mouse liver microsomes at 1 uM measured up to 4 hrs by LC-MS analysis; format: ADME, Microsome
[5] = Plasma clearance in Swiss mouse at 1 mg/kg, iv measured up to 24 hrs by LC-MS analysis; format: ADME, organism-based
[6] = Volume of distribution at steady state in Swiss mouse at 1 mg/kg, iv measured up to 24 hrs by LC-MS analysis; format: ADME, organism-based; conditions: in vivo, read-out: Vdss
[7] = Half life in Swiss mouse at 10 mg/kg, po measured up to 24 hrs by LC-MS analysis; format: ADME, organism-based; conditions: in vivo
[8] = Tmax in Swiss mouse at 10 mg/kg, po measured up to 24 hrs by LC-MS analysis; format: ADME, organism-based; conditions: in vivo
[9] = Cmax in Swiss mouse at 10 mg/kg, po measured up to 24 hrs by LC-MS analysis; format: ADME, organism-based; set-up: route oral, dose 10 mg/kg, time <=24; conditions: in vivo
[10] = AUC (0 to infinity) in Swiss mouse at 10 mg/kg, po measured up to 24 hrs by LC-MS analysis; format: ADME, organism-based; set-up: route oral, dose 10 mg/kg, time <=24; conditions: in vivo
[11] = Oral bioavailability in Swiss mouse at 10 mg/kg measured up to 24 hrs by LC-MS analysis; format: ADME, organism-based; conditions: in vivo
[12] = Plasma clearance in Sprague-Dawley rat at […], iv measured up to 24 hrs; format: ADME, organism-based; conditions: dose 2.6 mg/kg
[13] = Volume of distribution at steady state in Sprague-Dawley rat at […], iv measured up to 24 hrs; format: ADME, organism-based; conditions: in vivo, dose 2.6 mg/kg, read-out: Vdss
[14] = Apparent half life in Sprague-Dawley rat at 19 mg/kg, po measured up to 24 hrs; format: ADME, organism-based; conditions: in vivo, read-out: t1/2(app) (converted)
[15] = Tmax in Sprague-Dawley rat at 19 mg/kg, po measured up to 24 hrs; format: ADME, organism-based; conditions: in vivo
[16] = Cmax in Sprague-Dawley rat at 19 mg/kg, po measured up to 24 hrs; format: ADME, organism-based; set-up: route oral, dose 19 mg/kg, time <=24; conditions: in vivo
[17] = AUC (0 to infinity) in Sprague-Dawley rat at 19 mg/kg, po measured up to 24 hrs; format: ADME, organism-based; set-up: route oral, dose 19 mg/kg, time <=24; conditions: in vivo
[18] = Oral bioavailability in Sprague-Dawley rat at 19 mg/kg measured up to 24 hrs; format: ADME, organism-based; conditions: in vivo
Plasmodium falciparum [19] = assay: Antiplasmodial activity against Plasmodium falciparum 3D7 Uganda infected in human erythrocytes assessed as parasite killing using albumax media measured after 72 hrs by SYBR Green assay; format: functional, organism-based; conditions: 3D7, 72 h
Plasmodium falciparum [20] = assay: Antiplasmodial activity against Plasmodium falciparum Dd2 Uganda infected in human erythrocytes assessed as parasite killing using albumax media measured after 72 hrs by SYBR Green assay; format: functional, organism-based; conditions: Dd2, 72 h
Plasmodium falciparum [21] = assay: Antiplasmodial activity against Plasmodium falciparum Uganda field isolated from patients infected in human erythrocytes assessed as parasite killing using albumax media measured after 72 hrs by SYBR Green assay; format: functional, organism-based
Plasmodium falciparum [22] = assay: Antimalarial activity against Plasmodium falciparum 3D70087/N9 infected in orally dosed NOD-SCID IL2Rgamma null mouse assessed as parasitemia level administered days after 3 post infection once daily for 4 days measured on day 7 by flow cytometry; format: functional; conditions: time 4 day
[23] = Unbound AUC in orally dosed NOD-SCID IL2Rgamma null mouse infected with Plasmodium falciparum 3D70087/N9 administered days after 3 post infection once daily for 4 days measured on day 7 by flow cytometry; format: ADME, organism-based; conditions: in vivo, po, 96 h, time 4 day
Plasmodium falciparum [24] = assay: Antimalarial activity against Plasmodium falciparum 3D70087/N9 infected in NOD-SCID IL2Rgamma null mouse assessed as parasitemia level at 10 mg/kg, po administered days after 3 post infection once daily for 4 days measured on day 7 by flow cytometry; format: functional, organism-based; conditions: time 4.0 day
Plasmodium falciparum [25] = assay: Antimalarial activity against Plasmodium falciparum 3D70087/N9 infected in orally dosed NOD-SCID IL2Rgamma null mouse assessed as parasitemia level in human red blood cells at 16.7 mg/kg, po administered days after 1 day post infection twice daily for 6 days measured on day 7 by flow cytometry; format: functional, organism-based; conditions: time 6.0 day
physchem [26] = conditions: FaSSGF, pH 1.6
physchem [27] = conditions: FaSSIF, pH 6.5
physchem [28] = conditions: FeSSIF, pH 5.8
physchem [29] = conditions: PBS, pH 7.4
in vitro [30] = conditions: human, plasma
in vitro [31] = conditions: rat, plasma
in vitro [32] = conditions: mouse, plasma
in vitro [33] = conditions: human, caco-2, pH 7.4
in vitro [34] = conditions: human, caco-2, pH 7.4; remark: listed apart in the source
Plasmodium falciparum [35] = assay: microbe, parasite or virus in culture; conditions: 3D7, 72 h

Sequence of Albumin (P02769 whole entry): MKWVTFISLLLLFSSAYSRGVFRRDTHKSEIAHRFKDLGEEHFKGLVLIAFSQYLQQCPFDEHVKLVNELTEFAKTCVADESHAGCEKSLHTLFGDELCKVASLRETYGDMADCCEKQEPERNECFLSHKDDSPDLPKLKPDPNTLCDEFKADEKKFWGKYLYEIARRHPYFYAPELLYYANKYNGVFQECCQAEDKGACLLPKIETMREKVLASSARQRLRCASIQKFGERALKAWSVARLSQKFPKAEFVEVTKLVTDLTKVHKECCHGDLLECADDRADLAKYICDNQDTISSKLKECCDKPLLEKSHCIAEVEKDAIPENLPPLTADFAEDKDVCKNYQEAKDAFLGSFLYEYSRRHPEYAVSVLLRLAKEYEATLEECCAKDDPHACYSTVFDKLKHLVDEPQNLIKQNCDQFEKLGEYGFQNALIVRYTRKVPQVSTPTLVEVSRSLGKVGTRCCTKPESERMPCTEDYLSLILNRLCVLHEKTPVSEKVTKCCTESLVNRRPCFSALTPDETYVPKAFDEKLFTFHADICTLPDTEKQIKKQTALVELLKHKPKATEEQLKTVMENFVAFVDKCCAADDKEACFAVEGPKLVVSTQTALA

## Cc1cc(Nc2ccc(S(F)(F)(F)(F)F)cc2)n2nc(C(F)(F)F)nc2n1
[1]
  pIC50: 7.52
Albumin
  Activity: 83.1%
[2]
  Activity: 71.7%
[3]
  Intrinsic clearance: < 7 µL/min/mg
[4]
  CL free: < 25 µL/min/mg
[5]
  clearance: 8.2 mL/min/kg
[6]
  Vd: 2.3 L/kg
[7]
  half-life: 2.5 h
[8]
  Tmax: 1.2 h
[9]
  Cmax: 3.1 µM
[10]
  AUC(0-inf): 22.8 µM·h
[11]
  bioavailability: 46%
[12]
  clearance at 24 h: 6.5 mL/min/kg
[13]
  Vd at 24 h: 5.9 L/kg
[14]
  half-life: 16 h
[15]
  Tmax: 7 h
[16]
  Cmax: 4 µM
[17]
  AUC(0-inf): 120 µM·h
[18]
  bioavailability: 57%
Plasmodium falciparum [19]
  pEC50: 8.54
Plasmodium falciparum [20]
  pEC50: 8.54
Plasmodium falciparum [21]
  pEC50: 8.43
Plasmodium falciparum [22]
  ED50: 5.6 mg/kg
[23]
  fAUC: 0.85 µM·h
Plasmodium falciparum [24]
  Activity: Active
Plasmodium falciparum [25]
  Activity: Active
Physchem [26]
  solubility at 1 h: 6.8 µg/mL (≈ 16.2 µM)
Physchem [27]
  solubility at 5 h: 5.1 µg/mL (≈ 12.2 µM)
Physchem [28]
  solubility at 5 h: 27.6 µg/mL (≈ 65.8 µM)
Physchem [29]
  solubility at 5 h: 2 µg/mL (≈ 4.77 µM)
In vitro [30]
  fraction unbound: 0.002
In vitro [31]
  fraction unbound: 0.025
In vitro [32]
  fraction unbound: 0.03
In vitro [33]
  Papp A→B: 54 ×10⁻⁶ cm/s
In vitro [34]
  Papp B→A: 49 ×10⁻⁶ cm/s
Plasmodium falciparum [35]
  pEC50: 8.22
